This is an account of results in patent US10227345B2, “Compounds and methods for inhibiting fascin” (Cornell University, priority 2014, dated 2019).

What is called inhibition is the share of the control response that was lost under treatment.

This assay has as its target T1, human fascin 1 (Homo sapiens, UniProt Q16658).
T1 construct: GST (N, cleaved yes); made in house; host or cells: Escherichia coli BL21/DE3 (pGEX4T-fascin 1 plasmid)
The assay can be described thus: Fascin inhibition (actin bundling) assay, image-based. In kind it is biochemical. Particulars: in the presence of 50 μm of the compound relative to bundle activity when the compound was not present; read-out: Inhibition (percentage reduction of bundle activity). On the procedure: Recombinant human fascin 1 was expressed as a GST fusion protein in BL21 Escherichia coli. One liter of 2YT medium with ampicillin was inoculated overnight with 3 mL of BL21/DE3 culture transformed with pGEX4T-fascin 1 plasmid and grown at 37° C. until attenuance at 600 nm (D600) reached about 0.8. The culture was then transferred to 18° C. and induced by the addition of 0.1 mM isopropyl β-d-thiogalactoside (IPTG) for 12 h. Bacteria were harvested by centrifugation at 5,000 r.p.m. for 10 min. The pellets were suspended in 30 mL of PBS supplemented with 0.2 mM PMSF, 1 mM DTT, 1% (v/v) Triton X-100 and 1 mM EDTA. After sonication, the suspension was centrifuged at 15,000 r.p.m. for 30 min to remove the cell debris. The supernatant was then incubated for 2 h with 4 mL of glutathione beads (Sigma) at 4° C. After extensive washing with PBS, the beads were resuspended in 10 mL of thrombin cleavage buffer (20 mM Tris-HCl pH 8.0, 150 mM NaCl, 2 mM CaCl2, 1 mM DTT). Fascin was released from the beads by incubation overnight with 40-100 U of thrombin at 4° C. After centrifugation, 0.2 mM PMSF was added to the supernatant to inactivate the remnant thrombin activity. The fascin protein was further concentrated with a Centricon® (Boca Raton, Fla.) filter to about 50 mg/mL.
Representative compounds described herein were tested for fascin inhibition activity. Purified fascin protein (15 μL of 0.5 μM) in buffer (100 mM KCl, 20 mM Tris/HCl, pH 7.5, 2 mM MgCl2) was added into each well of a clear 384-well flat-bottom plate (Corning) using Thermo Multidrop Combi (Fisher). Compound solutions (5 mM stock, 180 nL) were pin transferred from stock 384-well plates into the 384-well assay plates and incubated for 30 min. Then 15 μL of 0.5 μM polymerized actin (in 100 mM KCl, 20 mM Tris/HCl, pH 7.5, 2 mM MgCl2, 1 mM DTT, 1 mM ATP) (Cytoskeleton Inc.) was added, resulting in 30 μM final concentration for chemical compounds. […] Mixed solution (25 μL) was then transferred to one well in a black 384-well plate coated with poly-D-lysine, and stained actin bundles or F-actin would stick onto the poly-D-lysine plates. After the plates were thoroughly washed with 1×PBS for 3 times, the plate was imaged using an ImageXpress Micro High Content Screening System (Molecular devices). The images were processed and analyzed using MetaMorph software. The raw image data for each well was background-corrected by subtraction of the median intensities across all wells on the plate. The background-corrected data was used to compute the bundle length for each well. The negative control wells were employed for quality control: multiple DMSO-only control wells (16 wells/plate) were present on each assay plate.

Each structure is given as a SMILES string.

On to `O=C(Nc1nn(Cc2ccc(C(F)(F)F)cc2)c2cccc(Cl)c12)c1ccoc1` [Compound 117, N-(4-chloro-1-(4-(trifluoromethyl)benzyl)-1H-indazol-3-yl)furan-3-carboxamide], for which the inhibition at 50 µM is below 10%.
Then `Cc1nocc1C(=O)Nc1nn(Cc2ccc(C(F)(F)F)nc2)c2ccccc12` [Compound 93, 3-methyl-N-(1-((6-(trifluoromethyl)pyridin-3-yl)methyl)-1H-indazol-3-yl)isoxazole-4-carboxamide], with below 10%; and `Cc1ccc(Cn2nc(NC(=O)c3ccoc3)c3ccccc32)cc1` [Compound 78, N-(1-(4-methylbenzyl)-1H-indazol-3-yl)furan-3-carboxamide], with below 10%; and `CCCC(=O)Nc1nn(Cc2ccc(C(F)(F)F)cc2)c2cncc(Cl)c12` [Compound 153, N-(4-chloro-1-(4-(trifluoromethyl)benzyl)-1H-pyrazolo[3,4-c]pyridin-3-yl)butyramide], with 10%.
As for `Cc1ccccc1C(=O)Nc1nn(Cc2ccc(C(F)(F)F)cc2)c2ccccc12` [Compound 15, 2-methyl-N-(1-(4-(trifluoromethyl)benzyl)-1H-indazol-3-yl)benzamide], the inhibition at 50 µM was below 10%.
As for `Cc1cc(C(=O)Nc2nn(Cc3ccc(C(F)(F)F)cc3)c3ccccc23)oc1C` [Compound 1, 4,5-dimethyl-N-(1-(4-(trifluoromethyl)benzyl)-1H-indazol-3-yl)furan-2-carboxamide], the inhibition at 50 µM was below 10%.
For `Cc1ccc2c(NC(=O)c3conc3C)nn(Cc3ccc(C(F)(F)F)cc3)c2n1` [Compound 133, 3-methyl-N-(6-methyl-1-(4-(trifluoromethyl)benzyl)-1H-pyrazolo[3,4-b]pyridin-3-yl)isoxazole-4-carboxamide], the inhibition at 50 µM is below 10%.
Then `CC(=O)Nc1nn(Cc2ccc(C(F)(F)F)cc2)c2cncc(Cl)c12` [Compound 150, N-(1-(4-(trifluoromethyl)benzyl)-4-chloro-1H-pyrazolo(3,4-c)pyridyl)-3-acetamide], with 10%.
With `Cc1occc1-c1nn(Cc2ccc(C(F)(F)F)cc2)c2ccccc12` [Compound 148, 3-(2-methylfuran-3-yl)-1-(4-(trifluoromethyl)benzyl)-1H-indazole] the figure was 10%; with `O=C(Nc1nn(Cc2ccc(C(F)(F)F)cc2)c2ccccc12)c1ccccc1OC(F)F` [Compound 47, 2-(difluoromethoxy)-N-(1-(4-(trifluoromethyl)benzyl)-1H-indazol-3-yl)benzamide], below 10%.
Regarding `O=C(Nc1nn(Cc2ccc(F)cc2)c2ccccc12)c1ccno1` [Compound 73, N-(1-(4-fluorobenzyl)-1H-indazol-3-yl)isoxazole-5-carboxamide], the inhibition at 50 µM is 50%.
With `Cc1occc1C(=O)Nc1nn(Cc2ccc(C#N)cc2)c2ccccc12` [Compound 88, N-(1-(4-cyanobenzyl)-1H-indazol-3-yl)-2-methylfuran-3-carboxamide] the figure was below 10%.
With `Cc1ccc(Cn2nc(NC(=O)c3conc3C)c3ccccc32)cc1` [Compound 79, 3-methyl-N-(1-(4-methylbenzyl)-1H-indazol-3-yl)isoxazole-4-carboxamide], the inhibition at 50 µM was below 10%.
With `Cc1ncsc1C(=O)Nc1nn(Cc2ccc(C(F)(F)F)cc2)c2cccc(Cl)c12` [Compound 120, N-(4-chloro-1-(4-(trifluoromethyl)benzyl)-1H-indazol-3-yl)-4-methylthiazole-5-carboxamide] the figure was below 10%; with `Cc1ncoc1C(=O)Nc1nn(Cc2ccc(C(F)(F)F)cc2)c2ccccc12` [Compound 34, 4-methyl-N-(1-(4-(trifluoromethyl)benzyl)-1H-indazol-3-yl)oxazole-5-carboxamide], 80%; with `Cc1ccc(Cn2nc(N)c3ccccc32)cc1` [Compound 77, 1-(4-methylbenzyl)-1H-indazol-3-amine], below 10%.
With `Cc1ocnc1C(=O)Nc1nn(Cc2ccc(C(F)(F)F)cc2)c2ccccc12` [Compound 31, 5-methyl-N-(1-(4-(trifluoromethyl)benzyl)-1H-indazol-3-yl)oxazole-4-carboxamide] the figure was 60%; with `N#Cc1ccc2c(c1)c(NC(=O)c1cccnn1)nn2Cc1ccc(C(F)(F)F)nc1` [N-(5-cyano-1-((6-(trifluoromethyl)pyridin-3-yl)methyl)-1H-indazol-3-yl)pyridazine-3-carboxamide], below 10%; with `N#Cc1ccc(Cn2nc(N)c3ccccc32)cc1` [Compound 84, 4-((3-amino-1H-indazol-1-yl)methyl)benzonitrile], below 10%.
As to `Cc1nocc1C(=O)Nc1nn(Cc2ccc(C(F)(F)F)nc2)c2ccc(C#N)cc12` [Compound 99, N-(5-cyano-1-((6-(trifluoromethyl)pyridin-3-yl)methyl)-1H-indazol-3-yl)-3-methylisoxazole-4-carboxamide], the inhibition at 50 µM is below 10%.
Then `O=C(Nc1nn(Cc2ccc(C(F)(F)F)cc2)c2ccccc12)c1sccc1F` [Compound 37, 3-fluoro-N-(1-(4-(trifluoromethyl)benzyl)-1H-indazol-3-yl)thiophene-2-carboxamide], with below 10%; and `O=C(Nc1nn(Cc2ccc(C(F)(F)F)cc2)c2ccccc12)c1cnc[nH]1` [Compound 26, N-(1-(4-(trifluoromethyl)benzyl)-1H-indazol-3-yl)-1H-imidazole-5-carboxamide], with below 10%; and `O=C(Nc1nn(Cc2ccc(C(F)(F)F)cc2)c2ccccc12)c1ccccc1Cl` [Compound 5, 2-chloro-N-(1-(4-(trifluoromethyl)benzyl)-1H-indazol-3-yl)benzamide], with 50%.
For `Cc1ccc2c(NC(=O)c3ccoc3C)nn(Cc3ccc(C(F)(F)F)cc3)c2n1` [Compound 134, 2-methyl-N-(6-methyl-1-(4-(trifluoromethyl)benzyl)-1H-pyrazolo[3,4-b]pyridin-3-yl)furan-3-carboxamide], the inhibition at 50 µM is below 10%.
Then `N#Cc1ccc(Cn2nc(NC(=O)c3ccoc3)c3ccccc32)cc1` [Compound 85, N-(1-(4-cyanobenzyl)-1H-indazol-3-yl)furan-3-carboxamide], with below 10%; and `Cc1nocc1C(=O)Nc1nn(Cc2ccc(C(F)(F)F)cc2)c2c(C(F)(F)F)cccc12` [Compound 113, 3-methyl-N-(7-(trifluoromethyl)-1-(4-(trifluoromethyl)benzyl)-1H-indazol-3-yl)isoxazole-4-carboxamide], with below 10%; and `O=C(Nc1nn(Cc2ccc(C(F)(F)F)cc2)c2ccccc12)c1cccc(F)c1F` [Compound 20, 2,3-difluoro-N-(1-(4-(trifluoromethyl)benzyl)-1H-indazol-3-yl)benzamide], with below 10%.
As for `O=C(Nc1nn(Cc2ccc(C(F)(F)F)cc2)c2ccccc12)c1ccsn1` [Compound 39, N-(1-(4-(trifluoromethyl)benzyl)-1H-indazol-3-yl)isothiazole-3-carboxamide], the inhibition at 50 µM was found to be 50%.
With `Nc1nn(Cc2ccc(C(F)(F)F)cc2)c2c(C(F)(F)F)cccc12` [Compound 111, 7-(trifluoromethyl)-1-(4-(trifluoromethyl)benzyl)-1H-indazol-3-amine] the figure was below 10%.
